# Legend:
# Assay in all cases: Histone peptide microarray
# Type in all cases: binding, human
# KDM5B (3) = conditions: GST-tagged KDM5B (3); histone peptide array; arrays performed twice, n of 4
# Method in brief: (§1)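 Recombinant GST-PHD protein at 0.5 μM; 293-member modified histone peptide array; signals averaged from four repeats ± SD.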
# SP140L = conditions: GST-tagged SP140L; histone peptide array; arrays performed twice, n of 4
# Method in brief: as §1
# ING2 = conditions: GST-tagged ING2; histone peptide array; arrays performed twice, n of 4
# Method in brief: as §1
# KDM5A (3) = conditions: GST-tagged KDM5A (3); histone peptide array; arrays performed twice, n of 4
# Method in brief: as §1
# ING5 = conditions: GST-tagged ING5; histone peptide array; arrays performed twice, n of 4
# Method in brief: as §1
# ING4 = conditions: GST-tagged ING4; histone peptide array; arrays performed twice, n of 4
# Method in brief: as §1
# PHF13 = conditions: GST-tagged PHF13; histone peptide array; arrays performed twice, n of 4
# Method in brief: as §1
# MLL5 = conditions: GST-tagged MLL5; histone peptide array; arrays performed twice, n of 4
# Method in brief: as §1
# ING3 = conditions: GST-tagged ING3; histone peptide array; arrays performed twice, n of 4
# Method in brief: as §1
# KDM5B (1) = conditions: GST-tagged KDM5B (1); histone peptide array; arrays performed twice, n of 4
# Method in brief: as §1
# PHRF1 (RP) = conditions: GST-tagged PHRF1 (RP); histone peptide array; arrays performed twice, n of 4
# Method in brief: as §1
# CHD5 (PCC) = conditions: GST-tagged CHD5 (PCC = PHD + Dual Chromodomain); histone peptide array; arrays performed twice, n of 4
# Method in brief: as §1
# PHF21A = conditions: GST-tagged PHF21A; histone peptide array; arrays performed twice, n of 4
# Method in brief: as §1
# TAF3 = conditions: GST-tagged TAF3; histone peptide array; arrays performed twice, n of 4
# Method in brief: as §1
# AIRE (PP) = conditions: GST-tagged AIRE (PP); histone peptide array; arrays performed twice, n of 4
# Method in brief: as §1
# MORC3 (CW) = conditions: GST-tagged MORC3 (CW = CW-type Zn-finger); histone peptide array; arrays performed twice, n of 4
# Method in brief: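 Steps: express and purify GST-tagged PHD reader; incubate 0.5 μM protein on a peptide microarray (293 histone peptides, single or combined PTMs) following an optimized protocol; average signal across 4 replicates.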
# CHD4 (PPCC) = conditions: GST-tagged CHD4 (PPCC = Dual PHD + Dual Chromodomain); histone peptide array; arrays performed twice, n of 4
# Method in brief: as §1
# PHF8 = conditions: GST-tagged PHF8; histone peptide array; arrays performed twice, n of 4
# Method in brief: as §1
# BPTF (PB) = conditions: GST-tagged BPTF (PB = PHD + Bromodomain); histone peptide array; arrays performed twice, n of 4
# Method in brief: as §1
# PHF23 = conditions: GST-tagged PHF23; histone peptide array; arrays performed twice, n of 4
# Method in brief: as §1
# DPF2 (PPC2W2) = conditions: GST-tagged DPF2 (PPC2W2 = Dual PHD + C2W2-type Zn-finger); histone peptide array; arrays performed twice, n of 4
# Method in brief: as §1
# PHF2 = conditions: GST-tagged PHF2; histone peptide array; arrays performed twice, n of 4
# Method in brief: as §1
# BAZ2B = conditions: GST-tagged BAZ2B; histone peptide array; arrays performed twice, n of 4
# Method in brief: as §1
# TRIM66 (PB) = conditions: GST-tagged TRIM66 (PB = PHD + Bromodomain); histone peptide array; arrays performed twice, n of 4
# Method in brief: as §1
# KDM5A (1) = conditions: GST-tagged KDM5A (1); histone peptide array; arrays performed twice, n of 4
# Method in brief: as §1
# KDM7A = conditions: GST-tagged KDM7A; histone peptide array; arrays performed twice, n of 4
# Method in brief: as §1
# KDM4C (TTP) = conditions: GST-tagged KDM4C (TTP = Tandem Tudor domain + PHD); histone peptide array; arrays performed twice, n of 4
# Method in brief: as §1
# CHD5 (PPCC) = conditions: GST-tagged CHD5 (PPCC = Dual PHD + Dual Chromodomain); histone peptide array; arrays performed twice, n of 4
# Method in brief: as §1
# RAG2 = conditions: GST-tagged RAG2; histone peptide array; arrays performed twice, n of 4
# Method in brief: as §1
# ING1 = conditions: GST-tagged ING1; histone peptide array; arrays performed twice, n of 4
# Method in brief: as §1
# DIDO1 = conditions: GST-tagged DIDO1; histone peptide array; arrays performed twice, n of 4
# Method in brief: as §1
Substance,"Array Heatmap signal, KDM5B (3) (KDM5B (3))","Array Heatmap signal, SP140L (SP140L)","Array Heatmap signal, ING2 (ING2)","Array Heatmap signal, KDM5A (3) (KDM5A (3))","Array Heatmap signal, ING5 (ING5)","Array Heatmap signal, ING4 (ING4)","Array Heatmap signal, PHF13 (PHF13)","Array Heatmap signal, MLL5 (MLL5)","Array Heatmap signal, ING3 (ING3)","Array Heatmap signal, KDM5B (1) (KDM5B (1))","Array Heatmap signal, PHRF1 (RP) (PHRF1 (RP))","Array Heatmap signal, CHD5 (PCC) (CHD5 (PCC))","Array Heatmap signal, PHF21A (PHF21A)","Array Heatmap signal, TAF3 (TAF3)","Array Heatmap signal, AIRE (PP) (AIRE (PP))","Array Heatmap signal, MORC3 (CW) (MORC3 (CW))","Array Heatmap signal, CHD4 (PPCC) (CHD4 (PPCC))","Array Heatmap signal, PHF8 (PHF8)","Array Heatmap signal, BPTF (PB) (BPTF (PB))","Array Heatmap signal, PHF23 (PHF23)",other results
H3Cit2 + K4ac + K9ac + K14ac + K18ac: H3 1-20,0.5221,0.3325,0.5962,0.3736,0.342,0.466,0.6115,0.5262,0.4982,0.646,0.4027,0.8259,0.4553,0.2461,0.5046,0.3458,0.5849,0.3508,0.3441,0.5298,"Array Heatmap signal, DPF2 (PPC2W2) (DPF2 (PPC2W2)): 0.6168; Array Heatmap signal, PHF2 (PHF2): 0.465; Array Heatmap signal, BAZ2B (BAZ2B): 0.5241; Array Heatmap signal, TRIM66 (PB) (TRIM66 (PB)): 0.5899; Array Heatmap signal, KDM5A (1) (KDM5A (1)): 0.4761; Array Heatmap signal, KDM7A (KDM7A): 0.3757; Array Heatmap signal, KDM4C (TTP) (KDM4C (TTP)): 0.4985; Array Heatmap signal, CHD5 (PPCC) (CHD5 (PPCC)): 0.5544; Array Heatmap signal, RAG2 (RAG2): 0.246; Array Heatmap signal, ING1 (ING1): 0.5011; Array Heatmap signal, DIDO1 (DIDO1): 0.6333"
H3Cit2 + K4me2: H3 1-20,0.6867,0.366,0.6329,0.6902,0.3412,0.4531,0.6272,0.5743,0.4571,0.6545,0.4884,0.7759,0.4507,0.4779,0.3883,0.7482,0.5675,0.4758,0.3387,0.5864,"Array Heatmap signal, DPF2 (PPC2W2) (DPF2 (PPC2W2)): 0.6839; Array Heatmap signal, PHF2 (PHF2): 0.7165; Array Heatmap signal, BAZ2B (BAZ2B): 0.45; Array Heatmap signal, TRIM66 (PB) (TRIM66 (PB)): 0.6817; Array Heatmap signal, KDM5A (1) (KDM5A (1)): 0.4439; Array Heatmap signal, KDM7A (KDM7A): 0.3325; Array Heatmap signal, KDM4C (TTP) (KDM4C (TTP)): 0.4533; Array Heatmap signal, CHD5 (PPCC) (CHD5 (PPCC)): 0.5328; Array Heatmap signal, RAG2 (RAG2): 0.6011; Array Heatmap signal, ING1 (ING1): 0.5902; Array Heatmap signal, DIDO1 (DIDO1): 0.7273"
H3Cit2 + K4me3 + K9ac + K14ac + K18ac: H3 1-20,0.4827,0.3551,0.6235,0.5236,0.327,0.4376,0.5903,0.6331,0.4771,0.5319,0.4303,0.7154,0.4881,0.287,0.3964,0.4875,0.6008,0.4072,0.3451,0.5313,"Array Heatmap signal, DPF2 (PPC2W2) (DPF2 (PPC2W2)): 0.6832; Array Heatmap signal, PHF2 (PHF2): 0.7451; Array Heatmap signal, BAZ2B (BAZ2B): 0.483; Array Heatmap signal, TRIM66 (PB) (TRIM66 (PB)): 0.557; Array Heatmap signal, KDM5A (1) (KDM5A (1)): 0.4209; Array Heatmap signal, KDM7A (KDM7A): 0.3427; Array Heatmap signal, KDM4C (TTP) (KDM4C (TTP)): 0.4327; Array Heatmap signal, CHD5 (PPCC) (CHD5 (PPCC)): 0.5144; Array Heatmap signal, RAG2 (RAG2): 0.3489; Array Heatmap signal, ING1 (ING1): 0.5664; Array Heatmap signal, DIDO1 (DIDO1): 0.8494"

# From paper PMC6979384, “Characterization of the plant homeodomain (PHD) reader family for their histone tail interactions” (Epigenetics & Chromatin, 2020)
